The source made the active and inactive calls. How the calls were made is not given here.
System: rodent carcinogenicity bioassays, tumor incidence
Experiment: CCRIS carcinogenicity studies
Conditions: Dose: 0, Dose: 0
How it was run: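 Archive of carcinogenicity, mutagenicity, tumor promotion and tumor inhibition results drawn from journals, NCI reports and other sources, expert-reviewed; covers 1985-2011 and is no longer updated.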

## Nc1cc(S(=O)(=O)[O-])cc2c1C(=O)/C(=N\Nc1ccc(-c3ccc(N/N=C4\C(=O)c5c(N)cc(S(=O)(=O)[O-])cc5C=C4S(=O)(=O)[O-])c(O)c3)cc1O)C(S(=O)(=O)[O-])=C2.[Cu].[Cu].[Na+].[Na+].[Na+].[Na+]
Species: MOUSE, Strain/Sex: B6C3F1/FEMALE, Route: ORAL, 1000, 3000, 10000 PPM IN DIET FOR 103 WK (STUDY DURATION: 106 WK), 1000, 3000, 10000 PPM IN DIET FOR 103 WK (STUDY DURATION: 106 WK), Tumor Site: Type of Lesion: LIVER: HEPATOCELLULAR ADENOMA, HEPATOCELLULAR CARCINOMA
  carcinogen call: active; positive
Species: MOUSE, Strain/Sex: B6C3F1/MALE, Route: ORAL, 1000, 3000, 10000 PPM IN DIET FOR 103 WK (STUDY DURATION: 106 WK), 1000, 3000, 10000 PPM IN DIET FOR 103 WK (STUDY DURATION: 106 WK), Tumor Site: Type of Lesion: LIVER: HEPATOCELLULAR ADENOMA, HEPATOCELLULAR CARCINOMA
  carcinogen call: active; positive
Species: RAT, Strain/Sex: F344/FEMALE, Route: ORAL, 1000, 3000, 10000 PPM IN DIET FOR 103 WK (STUDY DURATION: 105 WK), 1000, 3000, 10000 PPM IN DIET FOR 103 WK (STUDY DURATION: 105 WK)
  carcinogen call: inactive; negative
Species: RAT, Strain/Sex: F344/MALE, Route: ORAL, 1000, 3000, 10000 PPM IN DIET FOR 103 WK (STUDY DURATION: 105 WK), 1000, 3000, 10000 PPM IN DIET FOR 103 WK (STUDY DURATION: 105 WK), Tumor Site: Type of Lesion: PHARYNX: SQUAMOUS CELL PAPILLOMA OR SQUAMOUS CELL CARCINOMA
  carcinogen call: active; positive

## C=C(C)C
Species: MOUSE, Strain/Sex: B6C3F1/FEMALE, Route: INHALATION, 500, 2000, 8000 PPM 6 HR/D 5 D/WK FOR 105 WK (STUDY DURATION: 105 WK), 500, 2000, 8000 PPM 6 HR/D 5 D/WK FOR 105 WK (STUDY DURATION: 105 WK)
  carcinogen call: inactive; negative
Species: MOUSE, Strain/Sex: B6C3F1/MALE, Route: INHALATION, 500, 2000, 8000 PPM 6 HR/D 5 D/WK FOR 105 WK (STUDY DURATION: 105 WK), 500, 2000, 8000 PPM 6 HR/D 5 D/WK FOR 105 WK (STUDY DURATION: 105 WK)
  carcinogen call: inactive; negative
Species: RAT, Strain/Sex: F344/N/FEMALE, Route: INHALATION, 500, 2000, 8000 PPM 6 HR/D 5 D/WK FOR 105 WK (STUDY DURATION: 105 WK), 500, 2000, 8000 PPM 6 HR/D 5 D/WK FOR 105 WK (STUDY DURATION: 105 WK)
  carcinogen call: inactive; negative
Species: RAT, Strain/Sex: F344/N/MALE, Route: INHALATION, 500, 2000;8000 PPM 6 HR/D 5 D/WK FOR 105 WK (STUDY DURATION: 105 WK), 500, 2000;8000 PPM 6 HR/D 5 D/WK FOR 105 WK (STUDY DURATION: 105 WK), Tumor Site: Type of Lesion: THYROID GLAND: FOLLICULAR CELL CARCINOMA
  carcinogen call: equivocal

## COc1ccc(C(=O)/C(Br)=C\C(=O)O)cc1
Species: MOUSE, Strain/Sex: B6C3F1/FEMALE, Route: INTRAPERITONEAL, 12, 24 MG/KG 3/WK FOR 104 WK (STUDY DURATION: 104-105 WK), 12, 24 MG/KG 3/WK FOR 104 WK (STUDY DURATION: 104-105 WK)
  carcinogen call: inactive; negative
Species: MOUSE, Strain/Sex: B6C3F1/MALE, Route: INTRAPERITONEAL, 12, 24 MG/KG 3/WK FOR 104 WK (STUDY DURATION: 104-105 WK), 12, 24 MG/KG 3/WK FOR 104 WK (STUDY DURATION: 104-105 WK)
  carcinogen call: inactive; negative
Species: RAT, Strain/Sex: F344/FEMALE, Route: INTRAPERITONEAL, 7, 14 MG/KG 3/WK FOR 104 WK (STUDY DURATION: 104-105 WK), 7, 14 MG/KG 3/WK FOR 104 WK (STUDY DURATION: 104-105 WK), Tumor Site: Type of Lesion: MAMMARY GLAND: FIBROADENOMA
  carcinogen call: active; positive
Species: RAT, Strain/Sex: F344/MALE, Route: INTRAPERITONEAL, 7, 14 MG/KG 3/WK FOR 104 WK (STUDY DURATION: 104-105 WK), 7, 14 MG/KG 3/WK FOR 104 WK (STUDY DURATION: 104-105 WK), Tumor Site: Type of Lesion: MULTIPLE SITES: MALIGNANT MESOTHELIOMA, TUNICA VAGINALIS: MESOTHELIOMA
  carcinogen call: active; positive

Reference: PubChem BioAssay AID1259411 (Chemical Carcinogenesis Research Information System (CCRIS), 2018)
